Results on two compounds are retold here after patent US20240050563A1, “Combination Treatment of Cancer” (Ares Trading S.A., priority 2020, published 2024).

This test concerns MC38 colon carcinoma cells. Kind of test: Syngeneic MC38 tumor model (tumor volume monitoring). It counts as in vivo, C57/BL6 mice. The settings on record: MCT4 inhibitor 30 mg/kg p.o. qd, bintrafusp alfa 492 μg/animal i.v. day 0, 3, 6; for % T/C: Day 20, versus Group 1 control (vehicle + mutant non-binding anti-PD-L1 antibody); for reduction of tumor growth: MC38 tumor-bearing C57/BL6 mice, study end day 20. The procedure: MC38 colon carcinoma cells were obtained from Scripps Research Institute. Cells were tested and verified to be free of adventitious viruses and mycoplasma.
MC38 cells were cultured in DMEM containing 4.5 g/L D-glucose, 2 mM glutamine, and 110 mg/L sodium pyruvate and supplemented with 10% FBS. All cells were maintained at 37° C. and 5% CO2 in aseptic conditions. Cells were passaged upon reaching 50-85% confluence for a total of 2 to 15 passages prior to in vivo implantation. Cells were harvested by trypsinization with TrypLE Express and viable cell counts were determined using a Countess or […] cell counter and trypan blue exclusion staining.
Female C57/BL6 mice were obtained from Charles River Laboratories. They were inoculated (s.c. in the right dorsal flank) with 1×10^6 MC38 cells in 0.1 mL sterile PBS. Treatment was initiated when tumors reached an average volume of approximately 50-80 mm^3 (Day 0).
Test groups of the MC38 tumor-bearing mice (8 animals in each group) were treated with both vehicle (20% Kleptose (HPB) in 50 mM Phosphate pH 7.4 buffer) and a mutant, non-binding anti-PD-L1 antibody (Group 1, control), the MCT4 inhibitor described as Compound 367 in WO 2020/127960 (5-{2-[5-chloro-2-(5-ethoxyquinoline-8-sulfonamido)phenyl]ethynyl}-4-methoxypyridine-2-carboxylic acid; commercially available from, e.g., Selleck Chemicals) (Group 2), bintrafusp alfa (Group 3), or a combination of Compound 367 and bintrafusp alfa (Group 4). In Group 1 (Control Group) the vehicle was administered at 10 ml/kg animal weight, p.o. once daily and Mut PD-L1 i.v. at day 0, 3, and 6 (400 μg/animal). In Groups 2 and 4 the MCT4 inhibitor was administered at 30 mg/kg animal weight (p.o. administration, once per day (qd)). In Groups 3 and 4 bintrafusp alfa was administered 492 μg/animal at day 0, 3, and 6 (i.v. administration). At day 20 the study was terminated. Efficacy of the treatment was evaluated by monitoring tumor volume over the course of the study.

As to “bintrafusp alfa: anti-PD-L1:TGFβRII fusion protein, CAS 1918149-01-5; light chain SEQ ID NO: 7, heavy chain SEQ ID NO: 8”, the “% T/C” value was 79.7% and the “reduction of tumor growth” value stood at 20%.

`CCOc1ccc(S(=O)(=O)Nc2ccc(Cl)cc2C#Cc2cnc(C(=O)O)cc2OC)c2ncccc12` [MCT4 inhibitor, 5-{2-[5-chloro-2-(5-ethoxyquinoline-8-sulfonamido)phenyl]ethynyl}-4-methoxypyridine-2-carboxylic acid]: the “% T/C” value came out at 79.1% and the “reduction of tumor growth” value is given as 20%.
